Patent publication US10434191B2, “Optical imaging probes” (THE UNIVERSITY COURT OF THE UNIVERSITY OF EDINBURGH, priority 2011, dated 2019)
Entries after “also recorded” stand apart in the source; their conditions may differ. Blank lines part the entries; values can stand above or below the compound they belong to.

Columns and labels:
[1] = tested on: freshly isolated human neutrophils; assay: In vitro Cellvizio 488 nm fibreoptic confocal imaging; format: cell-based
Protocol: Human neutrophils were isolated as described above and suspended in PBS with or without activating agents. A fibreoptic confocal system (488 Cellvizio) was used to acquire images in eppendorfs of cells both in the presence of free FAM and IQRs and after washing cells of free FAM and IQR in media. Imaging was performed for 60 s and representative still frames converted to bmp format.

[2] = tested on: freshly isolated human neutrophils (PMNs); assay: Live time-lapse confocal imaging of probe uptake in activated human neutrophils; format: cell-based
Protocol: (§1) Human peripheral blood leukocytes from healthy volunteers were prepared as previously described^25. Briefly, citrated blood was centrifuged at room temperature for 20 min at 350 g, and platelet-rich plasma was removed. Autologous serum was prepared by recalcification of platelet-rich plasma by addition of CaCl2 to a final concentration of 2 mM. Leukocytes were separated from erythrocytes by dextran sedimentation using 0.6% dextran T500 (Pharmacia, Milton Keynes, UK), and the leukocyte-rich upper layer was then fractionated using isotonic Percoll (Pharmacia). Neutrophils and mononuclear leukocytes (PBMC) were harvested from the 68%181% and 55/68% interfaces, respectively. In some experiments, neutrophils were labelled with DiD (Invitrogen, molecular probes) (2.5 μM) in D-PBS (w/o Ca/Mg) for 20 min at room temperature.
A laser-scanning confocal imaging system (LSM510; Carl Zeiss, Jena, Germany), incorporating an upright Axioskop FS2 microscope (63× objective) was used for image acquisition and processing. Exposure to 488 nm light was limited to 1-6% of the maximum laser power in order to minimize photobleaching and toxicity. In all cases, images were obtained without Kalman averaging and typically with a pixel dwell time of 3.2 μs with a pinhole diameter corresponding to 1 Airy unit. In multiple-labelling experiments pinhole diameters were adjusted to give optical Z-sections of equivalent depths, corresponding to 1 Airy unit for the longest excitation wavelength. All live time-lapse imaging of was performed in IMDM. Coverslips were transferred to a thermostatted environmental stage (POC Mini) maintained at 30° C.^26. Drugs were added by bath addition. In experiments where fluorescein was examined alone, the fluorophore was excited with a dedicated 488 nm line, and emitted light reflected from a NFT545 filter and passed through an LP505 filter.
In multiple labelling experiments involving membrane (DiD, Invitrogen), or dextran-647, and IQR probes, images were obtained simultaneously. DiD or dextran-647 was excited with a dedicated 633 nm line, and emitted light detected with meta detector (650-705 nm), whereas Fluorescein was excited with a dedicated 488 nm line, and emitted light reflected from a NFT545 filter and passed through an LP505 filter.
Neutrophils and mononuclear cells (6×10^5 cells total), or PBMC-derived macrophages, were seeded onto glass coverslips pre-coated with 10 μg/ml fibronectin (Sigma). Cells were allowed to adhere and 10 μM (final concentration) IQR1.2 added to wells prior to transfer to POC mini and placement in environmental chamber. Live imaging commenced at 30 s intervals. Baseline images were acquired for 10-15 min prior to addition of A21387 (10 μM, Sigma) and live time-lapse confocal images acquired for further 20 min. Where sivelestat or dynasore was included, cells were pretreated for 10 minutes prior to imaging.

[3] = tested on: PMNs, monocytes and lymphocytes; assay: Human cell specificity by live confocal imaging; format: cell-based; conditions: PMNs vs monocytes vs lymphocytes
Protocol: as §1, with “temperature. […]” for “temperature.”
In multiple labelling experiments using IQR probes in combination with syto-85 (Invitrogen, 2.5 μM, 30 minutes, 37° C.), images were acquired sequentially. Fluorescein was excited with a dedicated 488 nm line and emitted light reflected from a NFT545 filter and passed through an LP505 filter whereas syto-85 were excited with a dedicated 543 nm line, and emitted light detected with meta detector ([…]). […]

human neutrophil lysate = assay: Fluorescent microplate reader dequenching with neutrophil lysate; format: biochemical; conditions: 50 uM
Protocol: For experiments using neutrophil lysate, IQR4 (0.5 uM) is incubated with freeze-thawed neutrophil lysate (10×10^8 cells/ml) in IMDM with or without sivelestat (50 uM). The timecourse of fluorescence dequenching was followed for 30 min with a fluorescence microplate reader (excitation 480/20, emission 528/25).

[4] = target: T1, recombinant human neutrophil elastase (HNE) (Homo sapiens, UniProt P08246); assay: Fluorescent microplate reader dequenching with HNE; format: biochemical; conditions: 50 uM
T1 sequence (P08246 30-267): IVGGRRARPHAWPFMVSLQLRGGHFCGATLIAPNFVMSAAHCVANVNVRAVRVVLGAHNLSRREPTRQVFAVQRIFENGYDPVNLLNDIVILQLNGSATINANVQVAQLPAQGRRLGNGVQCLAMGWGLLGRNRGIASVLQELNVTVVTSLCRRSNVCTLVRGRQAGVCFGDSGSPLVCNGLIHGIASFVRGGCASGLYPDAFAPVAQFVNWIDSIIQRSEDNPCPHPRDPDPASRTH
Protocol: IQR4 (0.5 uM) was incubated with of human neutrophil elastase (HNE; 11.3 ug/ml) in reaction buffer (50 mm Hepes buffer, pH 7.4, 0.75 m NaCl, 0.05% Igepal CA-630 (v/v)) with or without of sivelestat (50 uM). The timecourse of fluorescence dequenching was followed for 30 min with a fluorescence microplate reader (excitation 480/20, emission 528/25).

Compound: 5(6)-carboxyfluorescein [FAM]
resolution of activated cells before wash ([1]; 15 min exposure, probe in medium): not possible to resolve activated cells
visibility of activated cells after washing ([1]; cells spun down, probe removed): activated cells are visible
probe uptake after pretreatment with dynamin inhibitor Dynasore ([2]; activated neutrophils, Dynasore pretreatment): prevented
appearance of punctate cell-associated fluorescence ([2]; activation with 10 μM A23187 (calcium ionophore), confocal imaging): rapid appearance of punctate cell-associated fluorescence
cell specificity of probe uptake/activation [3]: Only activated PMN's internalise FAM

Compound: O=C(N/N=C/c1ccc(O)c(O)c1)c1cc2ccccc2cc1O [Dynasore]
effect on uptake of IQR1.2 by activated neutrophils ([2]; pre-treatment, probe IQR1.2): prevented
effect on uptake of FAM by activated neutrophils ([2]; pretreatment, probe FAM): prevented
effect on cell-associated fluorescence of IQR1 in activated neutrophils ([2]; probe IQR1): inhibited

effect on HNE-induced dequenching of IQR4 [4]: inhibited; also recorded: blocked
Compound: CC(C)(C)C(=O)Oc1ccc(S(=O)(=O)Nc2ccccc2C(=O)NCC(=O)O)cc1 [sivelestat]
effect on neutrophil lysate-induced dequenching of IQR4 (human neutrophil lysate): blocked; also recorded: inhibited
effect on punctate cell-associated fluorescence from probe IQR4 in activated neutrophils ([2]; 50 μM, pre-treatment 10 mins, A23187): blocked; also recorded: inhibits the appearance of this punctate cell-associated fluorescence
